Measurements published in patent publication US12103915B2, “TEAD inhibitors and methods of uses thereof” (Insilico Medicine IP Limited, priority 2022, dated 2024).

Assays:
NCI-H226 cells = experiment: Cell growth assay (CellTiter-Glo); type: cell-based, human; conditions: Homo sapiens, NCI-H226, 168 h, 7 days treatment, CellTiter-Glo luminescence, read-out: H226 CTG IC50
Description: Example A: Cell Growth Assay
CellTiter-Glo reagent (CTG reagent, Promega, G7573).
[…] Also seeding an extra plate as Day 0 control measurement. The microplates were incubated at 37° C., 5% CO2 overnight.
Compounds were 3-fold serial diluted in DMSO and final top-concentration was […], 10 points. 0.3% DMSO as vehicle control. In addition, […] of CTG reagent was added into the extra plate and incubated at room temperature for 30 minutes and detected luminescence signals as Day 0 control by using EnVision (PerkinElmer, 2104 Mutilabel Reader).
Incubated other compounds treated plates at 37° C. for another 7 days and […] of CTG reagent was added into the plates and incubated at room temperature for 30 minutes and detected luminescence signals.
Day 0 luminescence signals were used as negative control or baseline. • Signalday0=average luminescence signals of Day 0 control cells. • Signalblank control=average luminescence signals of blank control. • SignalDMSO vehicle control=average luminescence signals of Day 7 DMSO vehicle control cells. • Signalcpds treatment=luminescence signals of Day 7 compounds treatment cells. Inhibition %=1−(Signalcpds treatment−Signalblank control)/(SignalDMSO vehicle control−Signalblank control)*100.
(Inhibitory concentration 50% (IC50) and maximum inhibition % were calculated using dose response curves.

TEAD1 = TEAD1 (Homo sapiens, UniProt P28347); experiment: Thermal shift assay TEAD1; type: binding
How it was run: (§1)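 Protein melt reactions contained TEAD1 (0.2 mg/ml final) or TEAD2 (0.08 mg/ml final) plus compound at 1 or 10 μM in 0.1% DMSO. Thermal unfolding was followed by dye fluorescence on a qPCR instrument.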

TEAD2 = TEAD2 (Homo sapiens, UniProt Q15562); experiment: Thermal shift assay TEAD2; type: binding
How it was run: as §1

TEAD3 = TEAD3 (Homo sapiens, UniProt Q99594); experiment: Thermal shift assay TEAD3; type: binding
How it was run: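 Compounds at 1 or 10 μM (0.1% DMSO, PBS dilution) mixed with 0.1 mg/ml final TEAD3 and thermal shift dye, then run through a qPCR melt to follow protein unfolding.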

TEAD4 = TEAD4 (Homo sapiens, UniProt Q15561); experiment: Thermal shift assay TEAD4; type: binding
How it was run: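 Compounds tested at 1 and 10 μM (0.1% DMSO, PBS) against TEAD4 protein at 0.1 mg/ml final. Melting followed by thermal shift dye fluorescence during a qPCR instrument ramp.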

Sequence of TEAD3 (Q99594 whole entry, species assumed): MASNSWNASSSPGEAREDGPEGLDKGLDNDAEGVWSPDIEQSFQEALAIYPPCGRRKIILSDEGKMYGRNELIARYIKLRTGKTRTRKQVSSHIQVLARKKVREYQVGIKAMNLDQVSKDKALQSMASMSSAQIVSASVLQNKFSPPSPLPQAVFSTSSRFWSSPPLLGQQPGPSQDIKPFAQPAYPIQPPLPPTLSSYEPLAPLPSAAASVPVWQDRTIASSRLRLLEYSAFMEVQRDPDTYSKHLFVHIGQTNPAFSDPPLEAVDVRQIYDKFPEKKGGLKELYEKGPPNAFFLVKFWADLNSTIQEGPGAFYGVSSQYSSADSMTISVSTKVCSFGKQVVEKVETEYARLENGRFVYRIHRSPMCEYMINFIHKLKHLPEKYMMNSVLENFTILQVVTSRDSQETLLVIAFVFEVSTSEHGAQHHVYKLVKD
Sequence of TEAD2 (Q15562 whole entry, species assumed): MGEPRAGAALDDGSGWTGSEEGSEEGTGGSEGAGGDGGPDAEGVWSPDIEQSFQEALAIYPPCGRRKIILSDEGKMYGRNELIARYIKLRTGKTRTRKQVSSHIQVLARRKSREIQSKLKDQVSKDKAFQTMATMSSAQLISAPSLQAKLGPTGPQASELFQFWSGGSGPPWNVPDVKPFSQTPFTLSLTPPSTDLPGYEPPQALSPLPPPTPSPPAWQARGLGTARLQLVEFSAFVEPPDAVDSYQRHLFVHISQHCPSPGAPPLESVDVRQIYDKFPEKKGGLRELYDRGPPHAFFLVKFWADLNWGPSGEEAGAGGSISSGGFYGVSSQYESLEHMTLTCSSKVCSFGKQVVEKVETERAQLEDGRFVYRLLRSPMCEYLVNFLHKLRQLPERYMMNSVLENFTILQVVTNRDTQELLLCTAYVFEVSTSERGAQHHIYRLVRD
Sequence of TEAD4 (Q15561 whole entry, species assumed): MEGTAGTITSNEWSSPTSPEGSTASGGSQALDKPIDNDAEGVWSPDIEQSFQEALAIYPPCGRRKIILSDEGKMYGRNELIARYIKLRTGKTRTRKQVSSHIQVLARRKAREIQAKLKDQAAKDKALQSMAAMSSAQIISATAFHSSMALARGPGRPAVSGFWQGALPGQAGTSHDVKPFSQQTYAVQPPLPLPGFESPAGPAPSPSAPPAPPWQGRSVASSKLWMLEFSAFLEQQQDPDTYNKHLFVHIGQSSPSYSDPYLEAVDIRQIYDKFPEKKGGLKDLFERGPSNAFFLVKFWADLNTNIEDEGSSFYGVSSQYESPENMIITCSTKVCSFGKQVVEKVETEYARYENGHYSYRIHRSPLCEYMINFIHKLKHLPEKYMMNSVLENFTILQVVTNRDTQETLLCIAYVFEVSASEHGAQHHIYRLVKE
Sequence of TEAD1 (P28347 whole entry, species assumed): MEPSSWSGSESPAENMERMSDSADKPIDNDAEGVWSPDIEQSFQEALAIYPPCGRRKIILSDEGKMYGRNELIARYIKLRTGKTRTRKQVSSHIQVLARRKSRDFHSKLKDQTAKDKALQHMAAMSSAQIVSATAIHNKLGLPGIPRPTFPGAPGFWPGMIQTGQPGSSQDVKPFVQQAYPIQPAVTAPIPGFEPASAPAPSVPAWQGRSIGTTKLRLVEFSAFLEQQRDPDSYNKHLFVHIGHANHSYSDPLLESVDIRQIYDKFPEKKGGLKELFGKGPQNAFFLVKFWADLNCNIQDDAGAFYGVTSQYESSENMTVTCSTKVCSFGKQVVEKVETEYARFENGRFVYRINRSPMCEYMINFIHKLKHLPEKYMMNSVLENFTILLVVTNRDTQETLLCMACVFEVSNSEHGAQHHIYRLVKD

Row | IC50 (NCI-H226 cells) [µM] | TEAD1 ΔTm (TEAD1) [°C] | TEAD2 ΔTm (TEAD2) [°C] | TEAD3 ΔTm (TEAD3) [°C] | TEAD4 ΔTm (TEAD4) [°C] | Structure (SMILES)
1 | < 0.1 | 9.3 | 12.2 | 0.8 | 10.4 | Cn1cc2cc(Oc3ccc(C(F)(F)F)cc3)cc([C@@H]3C[C@H]3C(=O)N3CCO[C@H](CO)C3)c2n1 (single isomer, unassigned) [Example 61]
2 | < 0.1 | 7.4 | 10.6 | 1.2 | 7.7 | Cn1cc2cc(Oc3ccc(C(F)(F)F)cc3)cc([C@@H]3C[C@H]3C(=O)N3CCO[C@@H](CO)C3)c2n1 (single isomer, unassigned) [Example 62]
3 | < 0.1 | 11.1 | 14.7 | 10.6 | 11.7 | Cn1cc2cc(Oc3ccc(C(F)(F)F)cc3)cc([C@@H]3C[C@H]3C(=O)NCC#N)c2n1 (single isomer, unassigned) [Example 66]
4 | < 0.1 | 8.8 | 9.9 | 1.7 | 7.9 | Cn1cc2cc(Oc3ccc(C(F)(F)F)cc3)cc([C@@H]3C[C@H]3C(=O)NC3(C#N)CC3)c2n1 (single isomer, unassigned) [Example 67]
5 | < 0.1 | 10.9 | 13.9 | 11.6 | 12.9 | C[C@@H](C#N)NC(=O)[C@@H]1C[C@H]1c1cc(Oc2ccc(C(F)(F)F)cc2)cc2cn(C)nc12 (single isomer, unassigned) [Example 69]
6 | < 0.1 | 8.4 | 11.7 | 7.0 | 8.6 | Cn1cc2cc(Oc3ccc(C(F)(F)F)cc3)cc([C@@H]3C[C@H]3C(=O)N3CC(C#N)C3)c2n1 (single isomer, unassigned) [Example 70]
7 | 1 to 30 | 11.2 | 13.4 | 12.2 | 12.2 | Cn1cc2cc(Oc3ccc(C(F)(F)F)cc3)cc([C@@H]3C[C@H]3C(=O)NC#N)c2n1 (single isomer, unassigned) [Example 71]
8 | < 0.1 | 3.5 | 8.6 | 1.7 | 4.7 | Cn1cc2cc(Oc3ccc(C(F)(F)F)cc3)cc(C3C[C@H]3C(=O)N3CCC[C@@H]3C#N)c2n1 (single isomer, unassigned) [Example 72]
9 | < 0.1 | 9.5 | 15.1 | 13.9 | 12.1 | Cn1cc2cc(Oc3ccc(C(F)(F)F)cc3)cc(C3C[C@H]3C(=O)N3CCC[C@H]3C#N)c2n1 (single isomer, unassigned) [Example 73]
10 | < 0.1 | 10.7 | 12.9 | 11.4 | 10.2 | Cn1cc2cc(Oc3ccc(C(F)(F)F)cc3)cc(C3C[C@H]3C(=O)N3CCC(O)CC3)c2n1 (single isomer, unassigned) [Example 74]
11 | < 0.1 | 9.3 | 11.9 | 10.1 | 11.6 | Cn1cc2cc(Oc3ccc(C(F)(F)F)cc3)cc([C@@H]3C[C@H]3C(=O)N3CC[C@@H](O)[C@H](O)C3)c2n1 (single isomer, unassigned) [Example 75b]
12 | < 0.1 | 7.4 | 7.1 | 1.8 | 4.4 | Cc1cn2cc(Oc3ccc(C(F)(F)F)cc3)cc([C@H]3C[C@@H]3C(=O)N3CC(O)C3)c2n1 (single isomer, unassigned) [Example 85b]
13 | 1 to 30 | 2.6 | 2.7 | 0.2 | 2.6 | Cn1cc2cc(N3CCC4(CCCC4)CC3)cc(C3C[C@H]3C(=O)N3C[C@H](O)[C@@H](O)C3)c2n1 (single isomer, unassigned) [Example 86]
14 | < 0.1 | 7.6 | 10.9 | 2.6 | 9.7 | Cn1cc2cc(Oc3ccc(C(F)(F)F)cn3)cc([C@H]3C[C@@H]3C(=O)N3CC(O)C3)c2n1 (single isomer, unassigned) [Example 88b]
15 | < 0.1 | 8.6 | 12.4 | 8.8 | 11.4 | Cn1cc2cc(Oc3ccc(C(F)F)cc3)cc([C@H]3C[C@@H]3C(=O)N3CC(O)C3)c2n1 (single isomer, unassigned) [Example 89b]
16 | < 0.1 | 7.7 | 10.5 | 2.9 | 10.3 | Cn1cc2cc(Oc3ccc(F)c(F)c3)cc([C@H]3C[C@@H]3C(=O)N3CC(O)C3)c2n1 (single isomer, unassigned) [Example 90b]
17 | < 0.1 | 9.4 | 10.6 | 6.4 | 9.4 | Cn1cc2cc(Oc3ccc(C(F)(F)F)cc3)cc(C3C[C@H]3C(=O)NC3CC4(CC(O)C4)C3)c2n1 (single isomer, unassigned) [Example 95]
18 | < 0.1 | 9.9 | 9.0 | 7.6 | 10.2 | Cn1cc2cc(Oc3ccc(C(F)(F)F)cc3)cc(C3C[C@H]3C(=O)N3CC4(CC(O)C4)C3)c2n1 (single isomer, unassigned) [Example 97]
19 | 0.1 to 0.5 | 7.3 | 9.2 | 0 | 8.4 | Cn1cc2cc(Oc3ccc(C(F)(F)F)cc3)cc(C3C[C@H]3C(=O)N3CCC4(COC4)C3)c2n1 (single isomer, unassigned) [Example 98]
20 | < 0.1 | 7.3 | 9.1 | 2.1 | 8.7 | Cn1cc2cc(Oc3ccc(C(F)(F)F)cc3)cc(C3C[C@H]3C(=O)NC34CC(O)(C3)C4)c2n1 (single isomer, unassigned) [Example 102]
21 | < 0.1 | 6.4 | 9.9 | 3.0 | 9.0 | Cn1cc2cc(Oc3ccc(C(F)(F)F)cc3)cc([C@@H]3C[C@H]3C(=O)N3CC4CC3CC4O)c2n1 (single isomer, unassigned) [Example 103a]
22 | < 0.1 | 9.2 | 12.0 | 10.4 | 11.8 | Cn1cc2cc(Oc3ccc(C(F)(F)F)cc3)cc([C@H]3C[C@@H]3C(=O)N3CC4CC3CC4O)c2n1 (single isomer, unassigned) [Example 103b]
23 | < 0.1 | 9.2 | 11.1 | 9.4 | 10.7 | Cn1cc2cc(Oc3ccc(C(F)(F)F)cc3)cc(C3C[C@H]3C(=O)N3C[C@H]4C[C@@H]3C[C@@H]4O)c2n1 (single isomer, unassigned) [Example 103c]
24 | < 0.1 | 9.5 | 11.6 | 10.3 | 11.2 | Cn1cc2cc(Oc3ccc(C(F)(F)F)cc3)cc(C3C[C@H]3C(=O)N3C[C@@H]4C[C@H]3C[C@H]4O)c2n1 (single isomer, unassigned) [Example 103d]
25 | < 0.1 | 6.9 | 9.1 | 1.8 | 8.7 | Cn1cc2cc(Oc3ccc(C(F)(F)F)cc3)cc(C3C[C@H]3C(=O)N3C[C@H]4C[C@@H]3C[C@H]4O)c2n1 (single isomer, unassigned) [Example 103e]

Row | Structure (SMILES) | IC50 (NCI-H226 cells) [µM] | TEAD1 ΔTm (TEAD1) [°C] | TEAD2 ΔTm (TEAD2) [°C] | TEAD3 ΔTm (TEAD3) [°C] | TEAD4 ΔTm (TEAD4) [°C]
26 | Cn1cc2cc(Oc3ccc(C(F)(F)F)cc3)cc(C3C[C@H]3C(=O)N3C4COCC3C4)c2n1 (single isomer, unassigned) [Example 96] | < 0.1 | 10.5 | 13.1 | 12.3 | 12.6
